From patent publication US20090325202A1, “Methods for Developing and Assessing Therapeutic Agents” (priority 2006, published 2009) come the findings set out here.

Experiment [1] relates to S6 ribosomal protein. Nature of the experiment: Panc 265 xenograft FNAB cells treated ex vivo, S6 ribosomal protein phosphorylation. Particulars: Panc 265 FNAB cells; CCI-779 1 uM; 6 hours. It is filed as cell-based, human. Here is the method: (§1) To obtain cancer cells, each animal tumor was sampled as described above. After collection of tumor FNAB samples, xenograft animals were subsequently treated with ZD1839 or CCI-779 for 28 days and tumor volumes were determined as described above. At day 7 of therapy, AD/DQ slides were prepared from tumor FNAB samples to retrospectively correlate the results of in vivo and ex vivo chemosentitivty tests from the same xenograft animal.
To determine viability of tumor cells obtained by FNAB, trypan blue dye exclusion assay was performed. The viability of tumor cells obtained by tumor FNAB from control animals was over 95%. Approximately 75,000 tumor cells were seeded into each well of a 6-well polypropylene microplate. Cells were treated in duplicates with vehicle (control) or with ZD1839 (5 uM) or CCI-779 (1 uM) in a humidified 5% CO2 incubator at 37° C. for different periods to determine the optimal treatment time to analyze drug effects.
(§2) After the treatment cells were collected, protein extracts were prepared and Western blot analysis was performed as described above. The ex vivo effect of ZD 1839 and CCI-779 on phosphorylation of ERK1/2 or S6 ribosomal proteins, respectively, was correlated with the in vivo data gathered from the FNAB smears prepared at day 7 of treatment.

The test system of experiment [2] is S6 ribosomal protein. The experiment can be described thus: In vivo tumor FNAB Western blot, S6 ribosomal protein phosphorylation (Example 5). Particulars: tumor samples of treated animals compared to control. Here is the method:
Fine needle aspiration yielded up to 200 μg of total protein as determined using the BCA protein assay (Pierce) and bovine serum albumin as a standard. Protein extracts (15 μg) were added to a loading buffer boiled and electrophoresed on a 7 or 10% (w/v) polyacrylamide gel in the presence of SDS. Molecular weights of the immunoreactive proteins were estimated based upon the relative migration with colored molecular weight protein markers (Amersham Pharmacia Biotech). After electrotransfer to Immobilon-P membranes (Millipore), membranes were blocked at room temperature using SuperBlock (Pierce,#37516) for one hour. The primary antibodies were diluted at 1:1000 in 1:10 dilution of SuperBlock solution and the membranes were incubated with primary antibodies overnight at 4° C. Next day, the membranes were washed and incubated for 1 h at room temperature with horseradish peroxidase (HRP)-conjugated secondary antibodies, rabbit IgG-HRP (SC-2004), or mouse IgG-HRP (SC-2005) from Santa Cruz Biotechnology at a final dilution of 1:3000. After washing three times with Tris-buffered saline antibody binding was visualized using enhanced chemiluminescence (SuperSignal West Pico, Pierce) and autoradiography.
The expression levels and the phosphorylation status of EGFR, ERK1/2 and S6 ribosomal protein were determined on Western blot analysis.

The subject of experiment [3] is primary human pancreatic cancer xenograft tumors. Nature of the experiment: Tumor growth (RTG) in xenograft mouse models of primary human pancreatic cancer. It is filed as in vivo, athymic (nu+/nu+) mice. An excerpt:
Four-week-old female athymic (nu+/nu+) mice were purchased from Harlan (Harlan Laboratories, Washington, D.C.). The research protocol was approved by the Johns Hopkins University Animal Care and Use Committee and animals were maintained in accordance to guidelines of the American Association of Laboratory Animal Care. Briefly, frozen pancreatic xenografts in first passage in mice, after being obtained from surgical specimens of patients undergoing pancreatic resection for adenocarcinoma at the Johns Hopkins Hospital were re-implanted subcutaneously in groups of 5 mice for each patient, with 2 small pieces per mouse (F2 generation). Tumors were allowed to grow to a size of 1.5 cm at which point they were harvested, divided into small ˜3×3×3 mm pieces, and transplanted to another 18-22 mice, with two tumors per mouse. Tumors from this second mouse-to-mouse passage were allowed to grow until reaching −200 mm^3, at which time mice were randomized in the following three treatment groups, with 6 mice in each group: control (vehicle), erlotinib (50 mg/kg/day i.p.), and temsirolimus (20 mg/kg days 1-5 i.p.). Mice were monitored daily for signs of toxicity and were weighed three times per week. Tumor size was evaluated three times per week by caliper measurements using the following formula: tumor volume=[length×width^2]/2 as previously reported (19). Relative tumor growth (RTG) was calculated by tumor growth of treated mice divided by tumor growth of control mice (T/C)×100. Experiments were terminated on day 28. Tumor response was defined as sensitive, when RTG was less than 50% on day 28.

Experiment [4] has as its system S6 ribosomal protein. The experiment can be described thus: Panc 265 xenograft in vivo FNAB smears, S6 ribosomal protein phosphorylation. More on the design: species or system human. Particulars: CCI-779 20 mg/kg days 1-5 i.p., FNAB day 7. Here is the method:
Animals were either untreated or treated with ZD1839: 150 mg/Kg daily or CCI-779: 20 mg/kg days 1-5 by intraperitoneal injection
as §1, §2

`CO[C@H]1C[C@@H]2CC[C@@H](C)[C@@](O)(O2)C(=O)C(=O)N2CCCC[C@H]2C(=O)O[C@H]([C@H](C)C[C@@H]2CC[C@@H](OC(=O)C(C)(CO)CO)[C@H](OC)C2)CC(=O)[C@H](C)/C=C(\C)[C@@H](O)[C@@H](OC)C(=O)[C@H](C)C[C@H](C)/C=C/C=C/C=C/1C` [temsirolimus, Temsirolimus]: in experiment [1], the “activity (phosphorylation) of target protein S6 ribosomal protein ex vivo” value is recorded as “successfully inhibited the activity of its target protein”. For the same compound, the “S6 ribosomal protein phosphorylation in vivo” value in experiment [2] is recorded as “effectively blocked S6 ribosomal protein phosphorylation”. Moreover, the “relative growth (RTG)” value in experiment [3] (all tumors except A194, temsirolimus 20 mg/kg days 1-5 i.p., day 28) was “less than 50%”. The tumor response entry in experiment [3] (tumor A194) was “resistant (greater than 50% RTG and were defined as resistant)”; in experiment [3] (tumor A198) it was “sensitive (Tumor response was defined as sensitive, when RTG was less than 50% on day 28)”. The “target protein phosphorylation in vivo” value in experiment [4] is reported as “strongly inhibited target protein phosphorylation”.
